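Interpolation was linear, between the two tested concentrations surrounding the appropriate level; five concentrations were tested over 48 hours in 96-well plates. TGI denotes the concentration required for complete inhibition of growth.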
Key:
Experiment in all cases: NCI tumour cell line growth inhibition, 48 h
[1] = test system: UACC-257 melanoma
[2] = test system: SNB-75 CNS
[3] = test system: MDA-N
[4] = test system: LOX IMVI melanoma
[5] = test system: NCI-H23 lung
[6] = test system: DU-145 prostate
[7] = test system: SK-MEL-5 melanoma
[8] = test system: SN12C renal
[9] = test system: HCC-2998 colon
[10] = test system: COLO 205 colon
[11] = test system: HCT-116 colon
[12] = test system: HT29 colon
[13] = test system: HCT-15 colon
[14] = test system: MOLT-4 leukemia
[15] = test system: MDA-MB-435
[16] = test system: OVCAR-8 ovarian
[17] = test system: 786-0 renal
[18] = test system: HOP-62 NSCLC
[19] = test system: KM12 colon
[20] = test system: SK-OV-3 ovarian
[21] = test system: TK-10 renal
[22] = test system: ACHN renal
[23] = test system: SW-620 colon
[24] = test system: K-562 leukemia
[25] = test system: OVCAR-3 ovarian
[26] = test system: U251 CNS
[27] = test system: NCI/ADR-RES ovarian
[28] = test system: HOP-92 NSCLC
[29] = test system: NCI-H522 lung
[30] = test system: MCF7 breast
[31] = test system: A549 NSCLC
[32] = test system: HS 578T breast
[33] = test system: SR leukemia
[34] = test system: MALME-3M melanoma
[35] = test system: PC-3 prostate
[36] = test system: M14 melanoma
[37] = test system: SK-MEL-28 melanoma
[38] = test system: HL-60(TB) leukemia
[39] = test system: RPMI-8226 leukemia
[40] = test system: SF-539 CNS
[41] = test system: BT-549 breast
[42] = test system: CAKI-1 renal
[43] = test system: OVCAR-5 ovarian
[44] = test system: OVCAR-4 ovarian
[45] = test system: SF-295 CNS
[46] = test system: SNB-19 CNS
[47] = test system: SF-268 CNS
[48] = test system: MDA-MB-231 breast
[49] = test system: CCRF-CEM leukemia
[50] = test system: UACC-62 melanoma
[51] = test system: SK-MEL-2 melanoma
[52] = test system: UO-31 renal
[53] = test system: A498 renal
[54] = test system: NCI-H226 lung
[55] = test system: NCI-H460 lung
[56] = test system: IGROV1 ovarian
[57] = test system: EKVX NSCLC
[58] = test system: RXF 393 renal

## COc1nc(N)c(C#N)c(C#N)c1C#N
[1]
  TGI: > 10 µM
[2]
  TGI: > 10 µM
[3]
  TGI: > 10 µM
[4]
  TGI: > 10 µM
[5]
  TGI: > 10 µM
[6]
  TGI: > 10 µM
[7]
  TGI: > 10 µM
[8]
  TGI: > 10 µM
[9]
  TGI: > 10 µM
[10]
  TGI: > 10 µM
[11]
  TGI: > 10 µM
[12]
  TGI: > 10 µM
[13]
  TGI: > 10 µM
[14]
  TGI: > 10 µM
[15]
  TGI: > 10 µM
[16]
  TGI: > 10 µM
[17]
  TGI: > 10 µM
[18]
  TGI: > 10 µM
[19]
  TGI: > 10 µM
[20]
  TGI: > 10 µM
[21]
  TGI: > 10 µM
[22]
  TGI: > 10 µM
[23]
  TGI: > 10 µM
[24]
  TGI: > 10 µM
[25]
  TGI: > 10 µM
[26]
  TGI: > 10 µM
[27]
  TGI: > 10 µM
[28]
  TGI: > 10 µM
[29]
  TGI: > 10 µM
[30]
  TGI: > 10 µM
[31]
  TGI: > 10 µM
[32]
  TGI: > 10 µM
[33]
  TGI: > 10 µM
[34]
  TGI: > 10 µM
[35]
  TGI: > 10 µM
[36]
  TGI: > 10 µM
[37]
  TGI: > 10 µM
[38]
  TGI: > 10 µM
[39]
  TGI: > 10 µM
[40]
  TGI: > 10 µM
[41]
  TGI: > 10 µM
[42]
  TGI: > 10 µM
[43]
  TGI: > 10 µM
[44]
  TGI: > 10 µM
[45]
  TGI: > 10 µM
[46]
  TGI: > 10 µM
[47]
  TGI: > 10 µM
[48]
  TGI: > 10 µM

## Cc1cc(C)c(S(=O)(=O)N2CCN(S(=O)(=O)c3c(C)cc(C)cc3C)OCCCCCO2)c(C)c1
[1]
  TGI: > 100 µM
[3]
  TGI: > 100 µM
[4]
  TGI: > 100 µM
[5]
  TGI: > 100 µM
[49]
  TGI: > 100 µM
[50]
  TGI: > 100 µM
[6]
  TGI: > 100 µM
[7]
  TGI: > 100 µM
[8]
  TGI: > 100 µM
[51]
  TGI: > 100 µM
[10]
  TGI: > 100 µM
[11]
  TGI: > 100 µM
[12]
  TGI: > 100 µM
[52]
  TGI: > 100 µM
[13]
  TGI: > 100 µM
[14]
  TGI: > 100 µM
[15]
  TGI: > 100 µM
[16]
  TGI: > 100 µM
[17]
  TGI: > 100 µM
[18]
  TGI: > 100 µM
[19]
  TGI: > 100 µM
[53]
  TGI: > 100 µM
[20]
  TGI: > 100 µM
[54]
  TGI: > 100 µM
[21]
  TGI: > 100 µM
[22]
  TGI: > 100 µM
[23]
  TGI: > 100 µM
[24]
  TGI: > 100 µM
[25]
  TGI: > 100 µM
[55]
  TGI: > 100 µM
[26]
  TGI: > 100 µM
[27]
  TGI: > 100 µM
[28]
  TGI: > 100 µM
[29]
  TGI: > 100 µM
[30]
  TGI: > 100 µM
[31]
  TGI: > 100 µM
[32]
  TGI: > 100 µM
[34]
  TGI: > 100 µM
[56]
  TGI: > 100 µM
[35]
  TGI: > 100 µM
[36]
  TGI: > 100 µM
[37]
  TGI: > 100 µM
[38]
  TGI: > 100 µM
[57]
  TGI: > 100 µM
[41]
  TGI: > 100 µM
[42]
  TGI: > 100 µM
[43]
  TGI: > 100 µM
[44]
  TGI: > 100 µM
[45]
  TGI: > 100 µM
[46]
  TGI: > 100 µM
[47]
  TGI: > 100 µM

## CC12OC1(C)C1C(=O)OCC1C2=O (stereo not given)
[1]
  TGI: > 100 µM
[2]
  TGI: > 100 µM
[3]
  TGI: > 100 µM
[4]
  TGI: > 100 µM
[5]
  TGI: > 100 µM
[49]
  TGI: 36 µM
[50]
  TGI: > 100 µM
[6]
  TGI: > 100 µM
[7]
  TGI: > 100 µM
[8]
  TGI: 55.4 µM
[51]
  TGI: > 100 µM
[9]
  TGI: > 100 µM
[10]
  TGI: > 100 µM
[11]
  TGI: > 100 µM
[12]
  TGI: > 100 µM
[52]
  TGI: > 100 µM
[13]
  TGI: > 100 µM
[15]
  TGI: > 100 µM
[16]
  TGI: > 100 µM
[17]
  TGI: > 100 µM
[18]
  TGI: > 100 µM
[19]
  TGI: > 100 µM
[53]
  TGI: > 100 µM
[20]
  TGI: > 100 µM
[54]
  TGI: > 100 µM
[21]
  TGI: > 100 µM
[22]
  TGI: > 100 µM
[23]
  TGI: > 100 µM
[24]
  TGI: 72.4 µM
[25]
  TGI: > 100 µM
[55]
  TGI: > 100 µM
[26]
  TGI: > 100 µM
[27]
  TGI: > 100 µM
[28]
  TGI: > 100 µM
[29]
  TGI: 27.9 µM
[30]
  TGI: > 100 µM
[31]
  TGI: > 100 µM
[32]
  TGI: 94.1 µM
[33]
  TGI: 69.2 µM
[34]
  TGI: 69.7 µM
[56]
  TGI: > 100 µM
[35]
  TGI: > 100 µM
[36]
  TGI: > 100 µM
[37]
  TGI: > 100 µM
[38]
  TGI: 54.3 µM
[39]
  TGI: > 100 µM
[40]
  TGI: > 100 µM
[58]
  TGI: 84.6 µM
[41]
  TGI: > 100 µM
[42]
  TGI: 71.5 µM
[43]
  TGI: > 100 µM
[44]
  TGI: > 100 µM
[45]
  TGI: > 100 µM
[46]
  TGI: > 100 µM
[47]
  TGI: > 100 µM
[48]
  TGI: > 100 µM
